Test results reported in ChEMBL document CHEMBL1126199, “(R)-(-)- and (S)-(+)-adenallene: synthesis, absolute configuration, enantioselectivity of antiretroviral effect, and enzymic deamination” (J Med Chem, 1992).

System: Human immunodeficiency virus 1
Assay: Compound was tested for inhibition of HIV-1
Assay type: functional, organism-based

IC50 [µM] | Structure (SMILES)
14 | Nc1ncnc2c1ncn2C=C=CCO (stereo in doubt; 1a)
5.8 | Nc1ncnc2c1ncn2C=C=CCO (stereo in doubt; 2)
> 200 | Nc1ncnc2c1ncn2C=C=CCO (stereo in doubt; 3)
